What all share (format): cell-based
Data set [1] deals with human fibroblasts. The experiment in a line: Influence on cell cycle (Click-iT Plus EdU cell proliferation assay). To be noted: 2% addition; compared with no addition; FIG. 11. How it is done: The cells used were human fibroblasts.
The test groups were 1% addition groups and 2% addition groups of DMSO and HLS (OE2imC3C) vs. a control.
Cell cycle analysis was conducted using Click-iT® Plus EdU cell proliferation assay (Thermo Fisher Scientific Inc.) containing 5-ethynyl-2′-deoxyuridine (EdU) according to the manufacturer's protocol. The cells were incubated in 10 μM EdU for 1 hour, treated with trypsin, then fixed in 4% PFA, and labeled with Alexa Fluor 647 picolyl azide. The cells were stained with 4′,6-diamidino-2-phenylindole (DAPI) and analyzed with BD FACSAria™ III (BD Biosciences).

Data set [2] has as its system Human skin fibroblasts. The data set can be described thus: Cell freezing, slow freezing method, viable cell count after thawing (Examples 2, 3). The settings on record: 5% by weight in H2O; frozen to −80° C. at −1° C./min; FIG. 3, FIG. 6. How it is done: CultureSure® cryopreservation solution (manufactured by FUJIFILM Wako Pure Chemical Corp.) (hereinafter, referred to as “FM”) • H2O • 5% by weight of DMSO/H2O • 5% by weight of OE2imC3C/H2O
The cells to be frozen (two types) were centrifugally recovered by trypsin treatment and diluted with Dulbecco's modified Eagle medium (DMEM), and each cell concentration was measured. The types and cell concentrations of the cells are as follows. • Human skin fibroblasts 5.0×10^5 cells/100 μl • Mouse fibroblasts C57BL/6-GFP 5.0×10^5 cells/100 μl
Subsequently, the cells of each type were dispensed at 1 ml/tube to 1.5 ml tubes, centrifuged, suspended in 100 μl each of the cryopreservation solutions described above, and frozen at a cooling temperature of −80° C. at a cooling rate of −1° C./min using a cell freezing container Mr. Frosty®.
1 ml of a medium was added to the cryopreservation vial for thawing, and a supernatant was removed by centrifugation. Subsequently, the cells obtained by centrifugation were resuspended in a medium, followed by the measurement of a viable cell count. Then, culture was started in a 6-well plate. […]
The cells to be frozen were centrifugally recovered by trypsin treatment and diluted with Dulbecco's modified Eagle medium (DMEM), and the cell concentration was measured. […]

For data set [3], the system named is Human iPS cells. The data set can be described thus: Undifferentiation-specific gene expression analysis (Nanog, Oct3/4 quantitative PCR). The settings on record: no addition defined as 1. How it is done: Human iPS cells (RIKEN BRC) were reconstituted on SNL feeder cells (manufactured by Cell Biolabs, Inc.) and cultured in a CO2 incubator (5% CO2, 37° C., wet). On the next day, medium replacement was performed. The medium was replaced with a fresh one every day until 80% confluency. The cells that reached 80% confluency were recovered and subcultured. The subculture method for the cells is as follows: the cells were washed with DPBS(−) (no calcium, no magnesium, Thermo Fisher Scientific Inc.) and then treated with a CTK solution ((0.25% trypsin+1 mg/ml collagenase IV+1 mM CaCl2+20% KSR in DPBS (−))). The CTK solution was removed, and the cells were washed with DPBS(−) twice. […]
Subsequently, the expression levels of undifferentiation-specific genes Nanog and Oct3/4 were measured. […] The expression levels of the undifferentiation markers were quantified by the following method. […]
cDNA was synthesized from the FastLane lysate (RNA) through RT-PCR reaction using QuantiTect Reverse Transcription Kit (manufactured by Qiagen N.V.).
The quantitative PCR of OCT3/4 and NANOG was carried out under conditions of 95° C. for 30 seconds; (95° C. for 5 seconds; 60° C. for 30 seconds)×40; dissociation using SYBR Premix Ex Taq II (Tli RNaseH Plus) (manufactured by Takara Bio Inc.). […]

“Also recorded” adds a separate entry of the source.

Data on 1 molecule can be found in patent US12484574B2, “Agent for promoting undifferentiation and cryoprotective agent using aprotic zwitterion” (JAPAN SCIENCE AND TECHNOLOGY AGENCY, priority 2019, dated 2025).

Turning to `COCCOCCn1cc[n+](CCCC(=O)[O-])c1` [OE2imC3C], in data set [1], the “influence on cell cycle (G0/G1 phase, S phase)” value was “little influence”. Moreover, in data set [2], the “viable cell count after thawing” value is listed as “larger viable cell count than that in the case of using conventional DMSO; also recorded: superior to the commercially available cryopreservation solution (FM)”. The “relative expression levels of Nanog and Oct3/4” value in data set [3] (with SNL feeder cells, 0.4, 1.0 and 2.0% (w/v) in human iPS cell medium, FIG. 1) is “amplify the undifferentiation markers”; in data set [3] (without feeder cells, 1.0 and 2.0% (w/v) in SNL-conditioned medium, FIG. 2), “amplify the undifferentiation markers”.
